A word on the IC50: it is the concentration that gives 50% inhibition.

Data on 2 compounds can be found in US7498406B2, “Substantially cell membrane impermeable compound and use thereof” (priority 1999, dated 2009).

Data set [1] is classed as in vivo, SCID mice. Particulars: for macroscopic differences to untreated mice / morphological changes in heart, lungs, liver, kidneys, spleen: 10 mg per kg per day; for macroscopic differences to untreated mice: end of experiment; for morphological changes in heart, lungs, liver, kidneys, spleen: light microscopy (not shown); for adverse side effects of administration: 2 or 10 mg per kg per day, subcutaneous. Here is the method: FIG. 24. […] The data points and errors represent the mean and SE of the animal weights for the experiment described in FIG. 23.
(§1) Female 7 to 9 week old SCID or C57Bl6/J mice were used (Massachusetts General Hospital, Boston, Mass.). Mice were held in groups of 3 to 5 at a 12 hour day and night cycle and were fed with animal chow and water ad libidum. SCID mice were anaesthetised by inhalation of isoflurane, the dorsal skin shaved and cleaned with ethanol, and a suspension of 2.5×10^6 BxPC-3 or HT1080 cells in 0.2 mL of DMEM was injected subcutaneously in the proximal midline. C57Bl6/J mice with Lewis lung carcinomas of 0.6-1.2 cm^3 volumes were sacrificed and the skin overlying the tumour was cleaned with betadine and ethanol. Tumour tissue was excised under aseptic conditions and a suspension of tumour cells in 0.9% saline was made by passage of tumour tissue through a sieve and a series of sequentially smaller 22- to 30-gauge hypodermic needles. C57Bl6/J mice were anaesthetised and prepared as for SCID mice and a suspension of Lewis lung carcinoma cells in 0.2 mL of saline was injected subcutaneously in the proximal midline. Tumours were allowed to establish and grow to a size of ˜0.1 cm^3 after which they were randomised into two groups. The tumours were measured in two diameters and tumour volume was calculated using the relationship, tumour volume=a×b^2×0.52, where a is the longest and b the shortest diameters in cm. Animals were treated with either GSAA or GSAO at doses of 2 or 10 mg per kg per day in 0.2 mL of PBS containing 100 mM glycine. The compounds were administered subcutaneously at a site distant from the tumour. Tumour volume and animal weight was measured every 3 days. The tumours were excised and weighed when the animals were sacrificed.
At the conclusion of the experiment described in FIG. 23B the mice from both treatment groups were examined. […] The heart, lungs, liver, kidneys, and spleen of the GSAA or GSAO-treated and untreated mice were fixed in formaldehyde, embedded in paraffin, sectioned, stained with haematoxylin and eosin and examined by light microscopy.

Another data set concerns BAE. Kind of data set: Viability of cultured cells, 72 hr. In kind it is cell-based, bovine. The protocol:
BCE (Folkman et al. 1979), BAE, BxPC-3 (ATCC, Bethesda, Md.), HT1080 (Jiang et al., 1999), 3T3 (ATCC, Bethesda, Md.) and BVSM (Hogg et al., 1997) cells were harvested and cultured as indicated. Cells (0.5 mL of 30,000 or 100,000 cells per mL) were seeded into gelatinized 24-well culture plates (Corning Costar, Corning, N.Y.) in Dulbecco's Modified Eagle's Medium (DMEM, JHR Bioscience, Lenexa, Kans.) containing 10% fetal calf serum (FCS, Intergen Comp., Purchase, N.Y.) and 1% Glutamine Pen-Strep (GPS, Irvine Scientific, Santa Ana, Va.) and allowed to attach for 24 hr in 10% CO2 at 37° C. The media was then replaced with DMEM and 1% GPS containing 0 to 1 mM GSAO or GSAA and either 5% bovine calf serum (BCS, HyClone, Logan, Utah) and 1 ng per mL FGF-2 (Genzyme, Cambridge, Mass.) or 5% BCS and 10 ng per mL VEGF (Genzyme, Cambridge, Mass.) for BCE cells, 5% or 10% BCS for BAE cells, 5% BCS for BVSM cells, and 5% FCS for BxPC-3, HT1080 and 3T3 cells. Cells were cultured for 0 to 72 hr in 10% CO2 at 37° C. then dispersed in trypsin/EDTA (GibcoBRL, Granc Island, N.Y.), resuspended in Coulter balanced electrolyte solution and counted with a Z1 Coulter counter (Coulter Corp., Miami, Fla.) in all experiments there were two control wells containing DMEM with 1% GPS and either 5% BCS for BCE cells, 2% BCS for BAE and BVSM cells, or 2% FCS for BxPC-3, HT1080 and 3T3 cells. […]

Another data set deals with 3T3. Kind of data set: Viability of cultured cells, 72 hr. Format: cell-based, murine. Conditions: 0 to 1 mM. Here is the method:
FIG. 19. Effect of GSAO on proliferation of non-endothelial cells. 15,000 BxPC-3 (part A), HT1080 (part B), 3T3 (part C) or BVSM (part D) cells per well were seeded into gelatinised 24-well culture plates and allowed to attach for 24 hr. The media was then replaced with DMEM containing 0 to 1 mM GSAO or GSAA and either 5% BCS (part D) or 5% FCS (parts A, B and C). Cells were cultured for 72 hr and then dispersed and counted. The dotted lines indicate the cell number in control wells containing DMEM and 2% BCS (part D) or 2% FCS (parts A, B and C) which represented no to limited proliferation. The data points and errors represent the mean and range of duplicate wells.
BCE (Folkman et al. 1979), BAE, BxPC-3 (ATCC, Bethesda, Md.), HT1080 (Jiang et al., 1999), 3T3 (ATCC, Bethesda, Md.) and BVSM (Hogg et al., 1997) cells were harvested and cultured as indicated. […] Cells were cultured for 0 to 72 hr in 10% CO2 at 37° C. then dispersed in trypsin/EDTA (GibcoBRL, Granc Island, N.Y.), resuspended in Coulter balanced electrolyte solution and counted with a Z1 Coulter counter (Coulter Corp., Miami, Fla.) in all experiments there were two control wells containing DMEM with 1% GPS and either 5% BCS for BCE cells, 2% BCS for BAE and BVSM cells, or 2% FCS for BxPC-3, HT1080 and 3T3 cells. […]

The test system of a further data set is BxPC-3 tumours. Kind of data set: Tumour growth, continuous intraperitoneal administration by micro-osmotic pumps. In kind it is in vivo, SCID mice. Particulars: 10 mg per kg per day. The protocol: FIG. 27. Inhibition of human pancreatic carcinoma tumour growth by continuous intraperitoneal administration of GSAO. BxPC-3 tumours were established in the proximal midline of female 7 to 9 week old SCID mice. Mice bearing ˜0.1 g tumours were implanted with 14 day alzet model 1002 micro-osmotic pumps (ALZA Corporation, Palo Alto, Calif.) in the peritoneal cavity. The pumps contained 45 mg per mL GSAA or GSAO and delivered 10 mg per kg per day. The pumps were replaced after 14 days. Pump duration is indicated by the shaded bar. Tumour volume and animal weight was measured every 3 days.
SCID mice bearing subcutaneous human BxPC-3-pancreatic carcinoma tumours were implanted with 14 day micro-osmotic pumps in the peritoneal cavity. The pumps delivered 10 mg per kg per day GSAA or GSAO and were replaced after 14 days with fresh pumps. The rate of growth of the BxPC-3 tumours was inhibited in the mice receiving GSAO (FIG. 27). […] When the second pump was exhausted one of the halted tumours began to grow at about the same rate as the GSAA-treated tumour while the other tumour had resolved completely.

A further data set deals with Lewis lung tumours. Kind of data set: Tumour growth in mice, subcutaneous administration. In kind it is in vivo, C57Bl6/J mice. Conditions: 10 mg per kg per day; for inhibition of the rate of Lewis lung tumour growth: subcutaneous. Here is the method: FIG. 25. Inhibition of human fibrosarcoma and murine Lewis lung tumour growth following systemic administration of GSAO. HT1080 or Lewis lung tumours were established in the proximal midline of female 7 to 9 week old SCID or C57Bl6/J mice, respectively. When the tumours were ˜0.1 cm^3 in volume the mice were randomised into two groups (n=5) and treated with either GSAA or GSAO at a dose of 10 mg per kg per day in 0.2 mL of PBS containing 100 mM glycine. The compounds were administered subcutaneously at a site distant from the tumour. Tumour volume and animal weight was measured every 3 days. The GSAO/GSAA HT1080 tumour volume ratio at day 17 of treatment was 0.29 (part A). The GSAO/GSAA Lewis lung tumour volume ratio at day 12 of treatment was 0.29 (part B). The data points and errors represent the mean and SE of the tumour volumes.
as §1, with “Tumours were allowed to establish and grow to a size of ˜0.1 cm^3 after which they were randomised into two groups.” left out, “Animals were treated with either GSAA or GSAO at doses of 2 or 10 mg per kg per day in 0.2 mL of PBS containing 100 mM glycine. The compounds were administered subcutaneously at a site distant from the tumour.” left out, “The tumours were excised and weighed when the animals were sacrificed.” left out

For the compound `N[C@@H](CCC(=O)N[C@@H](CSCC(=O)Nc1ccc([As](=O)(O)O)cc1)C(=O)NCC(=O)O)C(=O)O` [GSAA, 4-(N-(S-glutathionylacetyl)amino)phenylarsonic acid, reference compound], in data set [1], the “macroscopic differences to untreated mice” value is given as “no apparent macroscopic differences”; the “morphological changes in heart, lungs, liver, kidneys, spleen” value is listed as “no obvious morphological changes”; the “adverse side effects of administration” value is on record as “no apparent adverse side effects”. The “effect on viability of BAE cells” value in the data set with BAE (not shown) is “did not effect either proliferation or viability”. Moreover, the “Viability IC50” value with 3T3 (5% FCS) is “no significant effect”. For the same compound, the “rate of BxPC-3 tumour growth” value in the data set on BxPC-3 tumours was “no significant effect”. Also, the “inhibition of the rate of Lewis lung tumour growth” value in the data set on Lewis lung tumours is recorded as “no effect”.
As to `NC(CCC(=O)NC(CSCC(=O)Nc1ccc([As]=O)cc1)C(=O)NCC(=O)O)C(=O)O` (stereo not shown) [GSAO, 4-(N-(S-glutathionylacetyl)amino)-phenylarsenoxide], in data set [1], the “macroscopic differences to untreated mice” value was “no apparent macroscopic differences”; the “morphological changes in heart, lungs, liver, kidneys, spleen” value was “no obvious morphological changes”; the “adverse side effects of administration” value is “no apparent adverse side effects”. For the same compound, the IC50 with BAE (Bos taurus, 72 h, 10% BCS, >90% confluent) is ~10 µM. In the data set on 3T3 (Mus musculus, NIH3T3, 5% FCS), the IC50 is ~40 µM. In the data set on BxPC-3 tumours, the “rate of BxPC-3 tumour growth” value is on record as “halted completely in two other mice” and the “slowing of tumour growth in one mouse” value was 50%. In addition, in the data set on Lewis lung tumours, the “inhibition of the rate of Lewis lung tumour growth” value was ~70%. For the same compound, the “GSAO/GSAA Lewis lung tumour volume ratio” value in the data set on Lewis lung tumours (day 12 of treatment) is 0.29.
